Reference: ChEMBL document CHEMBL1201862, “PubChem BioAssay data set” (2004)
Values joined by “and” are separate entries in the source; they are usually repeats but may differ in a detail not shown here. Equal values may be shown once.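 Exposure lasted 48 hours, with cells grown in 96-well plates and compounds tested at five concentrations. The concentration for 50% growth inhibition is given as GI50.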 Active and inactive are the calls of the source. No stated cut-off is given here; in the data, active = GI50 up to about 1.1 µM and inactive = higher.

What was measured:
Experiment in all cases: NCI-60 cell line screen, 48 h
[1] = test system: A549
[2] = test system: SK-MEL-5
[3] = test system: SF-539
[4] = test system: NCI-H522
[5] = test system: Hs-578T
[6] = test system: IGROV-1
[7] = test system: U-251
[8] = test system: DU-145
[9] = test system: SK-MEL-2
[10] = test system: EKVX
[11] = test system: K562
[12] = test system: HL-60
[13] = test system: SK-OV-3
[14] = test system: Malme-3M
[15] = test system: OVCAR-4
[16] = test system: HCC 2998
[17] = test system: RPMI-8226

| Structure (SMILES) | GI50 [1] | GI50 [2] | GI50 [3] | GI50 [4] | GI50 [5] | GI50 [6] | GI50 [7] | GI50 [8] | GI50 [9] | GI50 [10] | GI50 [11] | GI50 [12] | GI50 [13] | GI50 [14] | GI50 [15] | GI50 [16] | GI50 [17] |
| --- | --- | --- | --- | --- | --- | --- | --- | --- | --- | --- | --- | --- | --- | --- | --- | --- | --- |
| COC1OC(C(=O)CP(=O)(OC)OC)C(OCc2ccccc2)C(OCc2ccccc2)C1OCc1ccccc1 (configuration not stated) | 15.3 µM (inactive) and 15.5 µM (inactive) | 14.8 µM (inactive) and 15 µM (inactive) | 17.3 µM (inactive) and 16.9 µM (inactive) | 14.5 µM (inactive) and 16 µM (inactive) | 25.6 µM (inactive) and 22.1 µM (inactive) | 18.3 µM (inactive) and 18.9 µM (inactive) | 16.7 µM (inactive) and 15.6 µM (inactive) | 17.9 µM (inactive) and 16.5 µM (inactive) | 16.5 µM (inactive) and 17.1 µM (inactive) | 15 µM (inactive) and 16.9 µM (inactive) | 31 µM (inactive) and 17.9 µM (inactive) | 21.8 µM (inactive) and 18.7 µM (inactive) | 18.1 µM (inactive) and 17.9 µM (inactive) | 17.9 µM (inactive) and 19.2 µM (inactive) | 14.7 µM (inactive) and 20.7 µM (inactive) | 16.2 µM (inactive) and 17.3 µM (inactive) |  |
| COc1ccc(OC)c2sc(N3C(=O)/C(=C/c4ccc(SC)cc4)N=C3c3ccccc3)nc12 | 22.2 µM (inactive) | 15.6 µM (inactive) | 23.8 µM (inactive) |  | 17.7 µM (inactive) | 23.3 µM (inactive) | 17.5 µM (inactive) | 39.9 µM (inactive) | 20.8 µM (inactive) | 32.1 µM (inactive) | > 100 µM (inactive) | 25.5 µM (inactive) | 30.5 µM (inactive) |  | 28.5 µM (inactive) | 71.4 µM (inactive) | 13.3 µM (inactive) |
| Oc1c(C2=NNC(c3cccs3)C2)ccc2ccccc12 (configuration not stated) | 25.3 µM (inactive) | 23.2 µM (inactive) | 20.1 µM (inactive) | 21.9 µM (inactive) | 17.1 µM (inactive) | 14.5 µM (inactive) | 25 µM (inactive) | 20.9 µM (inactive) | 40.5 µM (inactive) |  | 17.9 µM (inactive) |  | 27.4 µM (inactive) | 18.8 µM (inactive) | 29.4 µM (inactive) | 14.8 µM (inactive) | 17.7 µM (inactive) |
| C=C(C)C1CCC2(C)C1CCC1(C)C2CCC2C3(C)C4OC(OC4=O)C(C)(C)C3CCC21C (configuration not stated) | > 100 µM (inactive) | > 100 µM (inactive) | > 100 µM (inactive) | 14.6 µM (inactive) | > 100 µM (inactive) | > 100 µM (inactive) | > 100 µM (inactive) | > 100 µM (inactive) | > 100 µM (inactive) | > 100 µM (inactive) | 33 µM (inactive) | 47.3 µM (inactive) | > 100 µM (inactive) |  |  | > 100 µM (inactive) | > 100 µM (inactive) |
| S=c1[nH]c2c(Cl)c(Cl)c(Cl)c(Cl)c2[nH]1 | 25.2 µM (inactive) | 17.6 µM (inactive) | 12.1 µM (inactive) | 1.2 µM (inactive) | 18.5 µM (inactive) | 14.1 µM (inactive) | 31.7 µM (inactive) | 36.1 µM (inactive) |  | 11.8 µM (inactive) | 7.23 µM (inactive) | 1.75 µM (inactive) | 20.1 µM (inactive) | 14.9 µM (inactive) | 5.94 µM (inactive) | 0.955 µM (active) | 3.52 µM (inactive) |
| N#CCCN(CCN(CCN(C(=O)Nc1ccccc1)c1ccccc1)C(=O)Nc1ccccc1)C(=O)Nc1ccccc1 | > 100 µM (inactive) | > 100 µM (inactive) | > 100 µM (inactive) |  | 26 µM (inactive) | 43.9 µM (inactive) | 5.7 µM (inactive) | > 100 µM (inactive) | > 100 µM (inactive) | 54.2 µM (inactive) |  |  | > 100 µM (inactive) |  | > 100 µM (inactive) | 28.2 µM (inactive) | 6.47 µM (inactive) |
| Cc1cs/c(=N\C(P(=O)(O)O)P(=O)(O)O)n1C | > 100 µM (inactive) | 86.5 µM (inactive) | > 100 µM (inactive) | > 100 µM (inactive) | 10.1 µM (inactive) | > 100 µM (inactive) | > 100 µM (inactive) | > 100 µM (inactive) |  | > 100 µM (inactive) | > 100 µM (inactive) | < 0.01 µM (active) | > 100 µM (inactive) | > 100 µM (inactive) |  | > 100 µM (inactive) | > 100 µM (inactive) |
| CC(=O)OCC1OC(n2c(=O)[nH]c(=O)c3sccc32)C(Br)C1OC(C)=O (configuration not stated) | > 100 µM (inactive) | > 100 µM (inactive) | > 100 µM (inactive) | > 100 µM (inactive) | > 100 µM (inactive) | > 100 µM (inactive) | > 100 µM (inactive) | > 100 µM (inactive) | > 100 µM (inactive) | > 100 µM (inactive) | > 100 µM (inactive) | > 100 µM (inactive) |  | > 100 µM (inactive) | > 100 µM (inactive) | > 100 µM (inactive) | > 100 µM (inactive) |
| CCOC(=O)/C(C#N)=C1\c2c([nH]c(=S)[nH]c2=O)Oc2ccc3ccccc3c21 | 1.67 µM (inactive) | 14 µM (inactive) |  | 19 µM (inactive) | 76.6 µM (inactive) | > 100 µM (inactive) | 23.7 µM (inactive) | 78.9 µM (inactive) | 13 µM (inactive) | 22.6 µM (inactive) | > 100 µM (inactive) | 2.64 µM (inactive) | 44.9 µM (inactive) | 68.7 µM (inactive) | > 100 µM (inactive) | 59.4 µM (inactive) | 33 µM (inactive) |
